What was measured:
[1] = test system: excess Iron within the cells; test: Tests of trivalent Chromium on excess Iron within the cells of humans; type: in vivo; conditions: absorbed into the bloodstream and delivered to the individual cells of humans
From the text: Also included in the present invention is trivalent Chromium. As currently contemplated, the Chromium will be in the form of Chromium Picolinate, Chromium Polynicotinate, or Chromium Chloride. The essential element is trivalent Chromium. The choice of Chromium Picolinate, Chromium Polynicotinate, or Chromium Chloride has been made by the inventors because they are readily, commercially available in most health food stores, pharmacies, and other sources of dietary supplements. […] This is a desirable treatment for people suffering from Diabetes and there are currently studies, which indicate that “Iron Loading” can possibly be attached to the occurrence of cancer. A possible alternative or compliment to the Chromium of the present invention is Vanadium in the form of Vanadyl Sulfate. A combination of both Chromium and Vanadium compounds have been utilized in some tests with desirable results.

[2] = Blood sugar level of a patient after application of the topical mixture to the skin; type: in vivo, human; conditions: presence of L-Histidine in the mixture
From the text: The present invention is best practiced by application of the trivalent Chromium composition at least twice daily. Preferably the application will be made before sleep and early in the morning ideally before exercise. Although the present invention may be applied to the entire body it is recommended it be applied to the legs and groin area where easy access to a large number of blood vessels can be achieved. Additionally, the legs and groin area contained some of the most exercised muscles in the human body. An alternative carrier base can be achieved through infusion of the trivalent Chromium and other elements into a bar of soap so as to achieve even distribution over the entire body. FIGS. 1 and 2 and the charts below show the blood sugar level of a patient utilizing the present invention in accordance with the formulation set above. The blood sugar level can be seen to drop dramatically after application of the present invention to the surface of the skin.

| Compound | levels of excess Iron within the cells [1] | levels of blood sugar in patients [2] |
| --- | --- | --- |
| trivalent Chromium | reduces the levels of excess Iron within the cells |  |
| N[C@@H](Cc1c[nH]cn1)C(=O)O [L-Histidine] |  | beneficial to lowering the levels of blood sugar |

From US20130344166A1, “TOPICAL MIXTURE AND METHOD FOR DERMAL APPLICATION TO REMOVE EXCESS IRON AND OTHER HEAVY METALS FROM CELLULAR TISSUE” (priority 2012, published 2013)
